Source: ChEMBL document CHEMBL1201862, “PubChem BioAssay data set” (2004)
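Tested at 5 concentrations; 48 h exposure; 96-well plates; endpoints linearly interpolated, else capped at highest concentration. GI50 is the concentration that inhibits growth by half.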 Activity calls are given as the source filed them. Cut-off read from the data, not from the text of the source: active = GI50 up to about 1.1 µM and inactive = higher.

Experiments:
Experiment in all cases: NCI-60 cell line screen, 48 h
[1] = test system: T47D
[2] = test system: CCRF-CEM
[3] = test system: M14
[4] = test system: PC-3
[5] = test system: K562
[6] = test system: ACHN
[7] = test system: MDA-MB-231
[8] = test system: SNB-75
[9] = test system: HCT-15
[10] = test system: KM12
[11] = test system: EKVX
[12] = test system: U-251
[13] = test system: COLO 205
[14] = test system: SNB-19
[15] = test system: HCT-116
[16] = test system: NCI/ADR-RES
[17] = test system: OVCAR-4
[18] = test system: MOLT-4
[19] = test system: LOX IMVI
[20] = test system: CAKI-1
[21] = test system: SK-MEL-2
[22] = test system: HT-29
[23] = test system: SF-295
[24] = test system: SK-MEL-28
[25] = test system: HCC 2998
[26] = test system: A498
[27] = test system: SF-539
[28] = test system: HOP-92
[29] = test system: MDA-N
[30] = test system: SK-MEL-5
[31] = test system: HL-60
[32] = test system: SK-OV-3
[33] = test system: SN12C
[34] = test system: UACC-62
[35] = test system: BT-549
[36] = test system: NCI-H23
[37] = test system: Malme-3M
[38] = test system: RXF 393
[39] = test system: SW-620
[40] = test system: UACC-257
[41] = test system: NCI-H522
[42] = test system: 786-0
[43] = test system: NCI-H460
[44] = test system: UO-31
[45] = test system: DU-145
[46] = test system: HOP-62
[47] = test system: SR
[48] = test system: NCI-H226
[49] = test system: OVCAR-8
[50] = test system: TK-10
[51] = test system: Hs-578T
[52] = test system: OVCAR-3
[53] = test system: MDA-MB-435
[54] = test system: A549
[55] = test system: OVCAR-5
[56] = test system: MCF7
[57] = test system: SF-268
[58] = test system: RPMI-8226
[59] = test system: IGROV-1

SMILES: CCSSCS(C)(=O)=O
- GI50 [1]: 35.2 µM (inactive)
- GI50 [2]: 3.9 µM (inactive)
- GI50 [3]: 20.4 µM (inactive)
- GI50 [4]: 40 µM (inactive)
- GI50 [5]: 3.88 µM (inactive)
- GI50 [6]: 30.5 µM (inactive)
- GI50 [7]: 89.1 µM (inactive)
- GI50 [8]: 23.3 µM (inactive)
- GI50 [9]: 8.02 µM
- GI50 [10]: 61.7 µM (inactive)
- GI50 [11]: 55.1 µM (inactive)
- GI50 [12]: 36.4 µM (inactive)
- GI50 [13]: 6.4 µM (inactive)
- GI50 [14]: 42.7 µM (inactive)
- GI50 [15]: 23.6 µM (inactive)
- GI50 [16]: 31.8 µM (inactive)
- GI50 [17]: 17.8 µM (inactive)
- GI50 [18]: 0.975 µM (active)
- GI50 [19]: 34.8 µM (inactive)
- GI50 [20]: 34.8 µM (inactive)
- GI50 [21]: 39.1 µM (inactive)
- GI50 [22]: 30.4 µM (inactive)
- GI50 [23]: 59.3 µM (inactive)
- GI50 [24]: 58.5 µM (inactive)
- GI50 [25]: 18.9 µM (inactive)
- GI50 [26]: 32.3 µM (inactive)
- GI50 [27]: 8.81 µM (inactive)
- GI50 [28]: 16.9 µM (inactive)
- GI50 [29]: 10.5 µM (inactive)
- GI50 [30]: 32.7 µM (inactive)
- GI50 [31]: 11.9 µM (inactive)
- GI50 [32]: 56.6 µM (inactive)
- GI50 [33]: 24.8 µM (inactive)
- GI50 [34]: 60.5 µM (inactive)
- GI50 [35]: 32.1 µM (inactive)
- GI50 [36]: 32.9 µM (inactive)
- GI50 [37]: 77.3 µM (inactive)
- GI50 [38]: 22.1 µM (inactive)
- GI50 [39]: 5.05 µM (inactive)
- GI50 [40]: 21.3 µM (inactive)
- GI50 [41]: 18.9 µM (inactive)
- GI50 [42]: 5.82 µM (inactive)
- GI50 [43]: 33.5 µM (inactive)
- GI50 [44]: 11 µM (inactive)
- GI50 [45]: 19.1 µM (inactive)
- GI50 [46]: 39.3 µM (inactive)
- GI50 [47]: 12.9 µM (inactive)
- GI50 [48]: 29.8 µM (inactive)
- GI50 [49]: 21.6 µM (inactive)
- GI50 [50]: 36.3 µM (inactive)
- GI50 [51]: 43.5 µM (inactive)
- GI50 [52]: 26.5 µM (inactive)
- GI50 [53]: 22.6 µM (inactive)
- GI50 [54]: 36.7 µM (inactive)
- GI50 [55]: 53.1 µM (inactive)
- GI50 [56]: 22.5 µM (inactive)
- GI50 [57]: 44.5 µM (inactive)

SMILES: O=C(Nc1ccc2ncccc2c1)Nc1ccc2ncccc2c1
- GI50 [1]: > 100 µM (inactive)
- GI50 [2]: > 100 µM (inactive)
- GI50 [3]: > 100 µM (inactive)
- GI50 [4]: > 100 µM (inactive)
- GI50 [5]: > 100 µM (inactive)
- GI50 [6]: > 100 µM (inactive)
- GI50 [58]: > 100 µM (inactive)
- GI50 [7]: > 100 µM (inactive)
- GI50 [8]: > 100 µM (inactive)
- GI50 [9]: > 100 µM
- GI50 [10]: > 100 µM (inactive)
- GI50 [11]: > 100 µM (inactive)
- GI50 [12]: > 100 µM (inactive)
- GI50 [13]: > 100 µM (inactive)
- GI50 [14]: > 100 µM (inactive)
- GI50 [15]: > 100 µM (inactive)
- GI50 [16]: > 100 µM (inactive)
- GI50 [17]: > 100 µM (inactive)
- GI50 [59]: > 100 µM (inactive)
- GI50 [18]: > 100 µM (inactive)
- GI50 [19]: > 100 µM (inactive)
- GI50 [20]: > 100 µM (inactive)
- GI50 [21]: > 100 µM (inactive)
- GI50 [22]: > 100 µM (inactive)
- GI50 [23]: > 100 µM (inactive)
- GI50 [24]: > 100 µM (inactive)
- GI50 [25]: > 100 µM (inactive)
- GI50 [26]: > 100 µM (inactive)
- GI50 [27]: > 100 µM (inactive)
- GI50 [28]: > 100 µM (inactive)
- GI50 [29]: > 100 µM (inactive)
- GI50 [30]: > 100 µM (inactive)
- GI50 [32]: > 100 µM (inactive)
- GI50 [33]: > 100 µM (inactive)
- GI50 [34]: > 100 µM (inactive)
- GI50 [35]: > 100 µM (inactive)
- GI50 [36]: > 100 µM (inactive)
- GI50 [37]: > 100 µM (inactive)
- GI50 [38]: > 100 µM (inactive)
- GI50 [39]: > 100 µM (inactive)
- GI50 [40]: > 100 µM (inactive)
- GI50 [41]: > 100 µM (inactive)
- GI50 [42]: > 100 µM (inactive)
- GI50 [43]: > 100 µM (inactive)
- GI50 [44]: > 100 µM (inactive)
- GI50 [45]: > 100 µM (inactive)
- GI50 [46]: > 100 µM (inactive)
- GI50 [47]: > 100 µM (inactive)
- GI50 [48]: > 100 µM (inactive)
- GI50 [49]: > 100 µM (inactive)
- GI50 [50]: > 100 µM (inactive)
- GI50 [51]: > 100 µM (inactive)
- GI50 [52]: > 100 µM (inactive)
- GI50 [53]: > 100 µM (inactive)
- GI50 [54]: > 100 µM (inactive)
- GI50 [55]: > 100 µM (inactive)
- GI50 [56]: > 100 µM (inactive)
- GI50 [57]: > 100 µM (inactive)
